Data as given in US9187415B2, “Sulfonamides as HIV protease inhibitors” (Merck Canada Inc., priority 2010, dated 2015).
Where two headings read alike, the source gives them in different places.

What was measured:
[1] = target: T1, HIV-1 protease (wild type) (Human immunodeficiency virus type 1 group M subtype B, UniProt P04585); assay: Protease Inhibition Assay (Pepcleave), inhibition of microbial expressed HIV protease; format: biochemical
T1 construct: made in house; host or cells: Escherichia coli
Protocol: Assay for Inhibition of Microbial Expressed HIV Protease
Inhibition studies of the reaction of the protease (which was expressed in Eschericia coli) with a peptide substrate [Val-Ser-Gln-Asn-(betanaphtyl)Ala-Pro-Ile-Val]. The inhibitor is first preincubated with the HIV-1 protease (wild type) enzyme in assay buffer (50 mM sodium acetate, pH 5.5, 100 mM NaCl, and 0.1% BSA) for 30 minutes at room temperature. Substrate is added to 400 micromolar in a total volume of 80 microliters containing 10 picomolar HIV-1 protease and the reaction is incubated for 1 hour at 30° C. The reaction is quenched with the addition of 120 microliters of 10% phosphoric acid. The product formation is determined after separation of product and substrate on a Zorbax Eclipse XDB-C18 column connected to an Agilent 1100 high performance liquid chromatography system with fluorescence detection (excitation 270 nanometer and emission 330 nanometer). Alternatively, the inhibitor is preincubated with enzyme and substrate as described above, but in a total volume of 20 microliters containing 20 picomolar HIV-1 protease and the reaction is incubated for 1 hour at 30° C. The reaction is quenched with the addition of 30 microliters of 1 micromolar indinavir (indinavir is also used as an internal standard), and the product formation is determined after separation of product and substrate on a Zorbax Eclipse XDB-C18 column connected to an API 4000 mass spectrometer (Applied Biosystems) with multiple reaction monitoring (transitions were 644.5/428.9 and 615.4/422.2 (M1/M3) for product and indinavir respectively). The extent of inhibition of the reaction is determined from the peak area of the products. HPLC of the products, independently synthesized, provided quantitation standards and confirmation of the product composition.
Protease Inhibition Assay (“Pepcleave”) data were collected based on the wild-type HIV-1 protease enzyme. The assay monitors the cleavage of a 8-mer peptide (VSQN[β-Nal]PIV) where the tyrosine at P1 position is replaced by β-Naphthyl-alanine. Upon cleavage of the peptide by HIV-1 protease, the product is separated from substrate by HPLC column and detected at Ex.=270 nm/Em=330 nm.

[2] = system: human immunodeficiency virus type 1; assay: Acute Infection Assay (Spread); format: cell-based, HIV-1; settings: Human immunodeficiency virus 1; 10% FBS; mean of at least two independent experiments; read-out: Spread IC95
Text: Acute Infection Assay (“Spread”) data were generated in 10% FBS, and according to the methods disclosed by J. P. Vacca et al, “L-735,524: An orally bioavailable human immunodeficiency virus type 1 protease inhibitor,” Proc. Nati. Acad. Sci. USA, Vol. 91, pp. 4096-4100 (April 1994).

Structure (SMILES) | IC50 ([1]; wild-type HIV-1 protease, mean of at least two independent experiments, read-out: Pepcleave Enzyme inhibition IC50) [nM] | IC95 [2] [nM] | IC50 [1] [nM]
COC(=O)N[C@H](C(=O)Nc1cccc(C[C@@H](CO)N(CCC(C)C)S(=O)(=O)c2ccc(N)cc2)c1)C(c1ccccc1)c1ccccc1 [Example 31, N-{3-[(2S)-2-{[(4-aminophenyl)sulfonyl](3-methylbutyl)amino}-3-hydroxypropyl]phenyl}-Nα-(methoxycarbonyl)-β-phenyl-L-phenylalaninamide] | 3.7 | 1260 | –
COC(=O)N[C@H](C(=O)Nc1cccc(C[C@@H](CO)N(CCC(C)C)S(=O)(=O)c2ccc(CO)cc2)c1)C(c1ccccc1)c1ccccc1 [Example 32, N-(3-{(2S)-3-hydroxy-2-[{[4-(hydroxymethyl)phenyl]sulfonyl}(3-methylbutyl)amino]propyl}phenyl)-Nα-(methoxycarbonyl)-β-phenyl-L-phenylalaninamide] | – | 1740 | 2.4
